Reference: patent US20220031710A1, “USE OF ERK5 INHIBITORS FOR TREATING GLIOMAS IN PEDIATRIC SUBJECTS” (UNIVERSITY OF PITTSBURGH - OF THE COMMONWEALTH SYSTEM OF …, priority 2019, published 2022)

What was measured:
[1] = system: SF8628 intracranial xenografts; assay: SF8628 orthotopic xenograft model; type: in vivo, mice
Experimental: (§1) Paraffin embedded blocks were cut in 5 μm sections. Slides were processed as follows: de-waxed in xylene followed by rehydration in a standard alcohol series. Antigen retrieval was by pressure cooking for 20 minutes in citrate buffer (pH 6.0), followed by blocking of endogenous peroxidase in 3% H2O2. The antibodies were added and incubated overnight at 4° C. Antibodies were detected using a secondary-HRP labeled mouse or rabbit antibody detection system (Dako EnVision+ System-HRP cat #k4401, cat #k4403) followed by addition 3,3′-Diaminobenzidine (DAB) chromagen (Vector Labs) for visualization. Sections were counter-stained with hematoxylin (Fisher Scientific Inc., Canada) and slides dehydrated in 70, 80, and 100% ethanol and xylene. Slides were cover slipped and mounted in Permount (Fisher Scientific Inc.). Antibodies and concentrations for IHC are as follows: Ki67 (1:100, Dako, cat #F7268). All images were captured on a Leica DM 100 microscope using Leica Application Suite Software (Switzerland, Version 3.8.0).
(§2) All animal procedures were carried out ethically according to animal user protocols approved by Institutional Animal Care Committee (IACUC). 4-6 week-old non-obese diabetic severe combined immune deficiency male or female mice (NOD-SCID-Prkdc^scid) were injected with 1×10^5 SU-DIPG-13p cells or 1×10^5 SF8628 DIPG cells. […]

DIPG-IV cells = assay: Cleaved Caspase 3/7 assay in DIPG-IV cells expressing ERK5 constructs; type: cell-based, human; conditions: 500 nM; DIPG-IV cells expressing ERK5-HA or ERK5-HA T733E vs empty vector
[2] = system: DIPG-007, DIPG-IV, SF8628, and DIPG-13p cells; assay: Alamar blue viability EC50 dose response in H3K27M DIPG cells; type: cell-based; conditions: Homo sapiens, 96 h, SF8628, DIPG-13p cells, lowest of the ERK5 inhibitors tested
Experimental: Human Neural Stem Cells (H9 hESC-Derived) were purchased from Invitrogen and grown in DMEM/F12 containing penicillin/streptomycin/amphotericin B (1% vol/vol) supplemented with N2 (2% vol/vol; Invitrogen), EGF (20 ng/ml; Invitrogen), and FGF-2 (20 ng/ml; Invitrogen). DIPG cell lines (all with the H3K27M mutation) SU-DIPG-IV (DIPG-IV), SU-DIPG-13p (DIPG-13p), and HSJD-DIPG-007 (DIPG-007) were grown and passaged in DIPG medium as previously reported (Grasso et al., Nature medicine 2015; 21:555-9; Nagaraja et al., Cancer cell 2017; 31:635-52 e6; Vinci et al., Nature medicine 2018). SF8628 and immortalized NHAs were grown in DMEM (Invitrogen) supplemented with 10% FBS (Invitrogen). All cell lines were confirmed by STR profiling and tested mycoplasma negative by PCR. All tumor-derived cell lines used are described in Table 2.
Direct cell counts were performed using the Countess II FL Automated Cell Counter (ThermoFisher Scientific). Alamar blue viability (ThermoFisher Scientific) and the 5-bromo-2′-deoxyuridine (BrdU) incorporated cell proliferation assay (Cell Signaling Technology Cat #6813) were performed using the manufacturer's standard protocol. EC50 curve analysis was performed using raw fluorescent Alamar blue values that were inputted into PRISM 7.0. Drug concentrations were log 10 transformed and values normalized to percent viability with respect to vehicle treated cells. […]

[3] = system: DIPG-007, DIPG-IV, SF8628 and DIPG-13p cells; assay: Annexin-PI flow cytometry apoptosis assay; type: cell-based, human; conditions: for populations in early apoptosis, late apoptosis and necrosis / viable cells (Annexin negative, PI negative): 48 h, vs DMSO vehicle
Experimental: Apoptosis was quantified using the Pacific Blue Annexin V Apoptosis Detection Kit with propidium iodide (BioLegend, San Diego, Calif. Cat #640926). Analysis was performed at the Flow Cytometry Core, Rangos Research Center, UPMC Children's Hospital of Pittsburgh.

MYC = assay: Western blot of phospho MYC S62 and total MYC in DIPG cells; type: cell-based, human; conditions: DIPG-IV and SF8628 cells; 500 nM
Experimental: Cell pellets were lysed in PLC lysis buffer containing protease and phosphatase inhibitors (Roche Inc.). Protein lysates were quantified using the bicinchoninic acid (BCA) assay (Pierce Chemical Co., Rockford, Ill.). 30 μg of total protein lysate was loaded in 10% SDS-PAGE gels and electrophoresed. Proteins were transferred to PVDF membranes using a semi-dry transfer apparatus (Bio-Rad). Membranes were blocked for one hour and probed for various proteins overnight in 5% non-fat milk or 5% BSA in Tris Buffered Saline Solution, 0.5% Tween-20 (TBST) or Phosphate Buffered Saline Solution with 0.5% Tween-20 (PBST). Membranes were washed for 5 mins in TBST (3×) and incubated with horseradish peroxidase-conjugated antibodies specific for the primary antibody (BioRad Laboratories, Inc., CA, USA). Binding was detected using Chemiluminescence Reagent Plus (PerkinElmer Inc., MA, USA).

DIPG-13p cells xenograft = assay: DIPG-13p orthotopic xenograft model; type: in vivo, mice; conditions: 50 mg/kg, 2 cycles of 5 days on 2 days off; DIPG-13p xenograft
Experimental: as §1, §2

`CCOc1cc(C(=O)N2CCC(N3CCN(C)CC3)CC2)ccc1Nc1ncc2c(n1)N(C1CCCC1)c1ccccc1C(=O)N2C` [ERK5-IN-1, 11-cyclopentyl-2-[[2-ethoxy-4-[[4-(4-methyl-1-piperazinyl)-1-piperidinyl]carbonyl]phenyl]amino]-5,11-dihydro-5-methyl-6H-pyrimido[4,5b][1,4]benzodiazepin-6-one] was tested, and the median survival ([1]; 50 mg/kg for 2 weeks (2 cycles of 5 days on 2 days off), SF8628 intracranial xenografts) was 40 days, the KI-67 staining ([1]; 50 mg/kg, SF8628 xenograft tumors, vs vehicle) was “reduced” and the “cleaved Caspase 3/7 levels” value (DIPG-IV cells) was “reduced cleaved Caspase 3/7 levels”. The EC50 [2] was 500 to 1000 nM, the “populations in early apoptosis, late apoptosis and necrosis” value ([3]; DIPG-007 and DIPG-IV cells) was “increased” and the “viable cells (Annexin negative, PI negative)” value ([3]; DIPG-007 and DIPG-IV cells) was “decreased”. For the same compound, the “populations in early apoptosis, late apoptosis and necrosis” value ([3]; SF8628 and DIPG-13p cells) was “increased”, the “viable cells (Annexin negative, PI negative)” value ([3]; SF8628 and DIPG-13p cells) was “decreased” and the rates of apoptosis ([3]; DIPG-007 and DIPG-IV cells, compared to controls) was “significantly higher rates of apoptosis”. The apoptosis ([3]; DIPG-13p and SF8628 cells) was “induction of apoptosis”, the “phospho and total MYC” value (MYC) was “reduced” and the median survival (DIPG-13p cells xenograft) was 30 days.
